Tested on: HCT116
Experiment: cells
Set-up: 2-deoxyglucose uptake inhibition, semi-automated resazurin/diaphorase fluorescence read-out of 2DG6P
Settings: Homo sapiens, HCT-116, 0.5 h; 2DG uptake
Method: Resazurin-based 2DG uptake assay (semi-automated high throughput) All buffers, reagents and steps were identical with those described for the manual screening Washing and [compound left out] addition steps were done using an automated cell washer or a multidrop device, respectively. Screening was performed in a 384-well plates. 15,000 HCT116 cells/well seeded into 384-well black-walled, clear bottomed plates (CellBIND, Corning) and incubated overnight. Compounds were added at 30 µM (final concentration for screening or serial dilutions staring from 30 µM for IC50 determinations) from DMSO stocks using the acoustic nanoliter dispenser ECHO 520. Fluorescence intensity was read from the bottom with a SpectraMax Paradigm Multi-Mode Microplate Reader (Molecular devices) using SUPPORTING INFORMATION 259 control (which was set to 100 %) and cells without 2DG (set to 0 %) using Graph Pad Prism 5 or 6 software and IC50 values were determined using a four-parameter fit. The observed difference in the obtained IC50 values for Glupin in the automated screening vs. manually performed assay is most likely attributed to the minituarization that is required for high-troughput screening and usually requires different plate format (384 vs. 96-well plates) and different cell number. In this case, the automated assay was performed in 384-well plates (vs. 96-well plates for the manual assay) with 15,000 cells per well (vs. 40,000 cells per well in the 96-well plates). For kinetic measurements, 15,000 cells were seeded into black CellBIND 384-well plates (Corning) and allowed to attach overnight. Then, the plates were washed 3X with KRB buffer containing 0.1%BSA and treated with different concentrations of 2DG (0-60mM) and Glupin (0-1µM) for 30s to 30min. The uptake was determined using the resazurin/diaphorase system as described above. 2DG uptake was stopped by aspirating the 2DG solution followed by quick wash with ice-cold KRB buffer (0.1 % BSA). Km and Vmax were determined by fitting the data according to Michaelis-Menten using non-linear fitting. The glucose uptake assay monitored the inhibition of 2‐deoxyglucose (2DG) uptake as described by Yamamoto et al.25 Briefly, 2DG uptake is determined by quantification of the 2DG‐6‐phosphate (2DG6P) that accumulates inside the cells by using the diaphorase‐resazurin/‐resorufin system (see Figure S7 a).

IC50: 120 ± 30 nM
Structure (SMILES): CCOC(=O)Cn1c2c(c3ccccc31)CC1CC2C(OC)CN1C(=O)c1cccnc1C(F)(F)F (racemic) [5w, (±)-Ethyl 2-(5-methoxy-3-(2-(trifluoromethyl)nicotinoyl)-1,2,3,4,5,6-hexahydro-7H-2,6-methanoazocino[5,4-b]indol-7-yl)acetate]
